# Results as given in ChEMBL document CHEMBL1782024, “Chisomicines A-C, limonoids from Chisocheton ceramicus” (J Nat Prod, 2011).
# The source made the active and inactive calls. No cut-off for these calls is given here.
# Experiments:
# [1] = system: J774.1; assay: Inhibition of LPS-induced nitric oxide production in mouse J774.1 cells after 24 hrs by griess assay; type: functional, cell-based; details: for IC50: J774.1, 24 h
# [2] = Cytotoxicity against mouse J774.1 cells after 2 hrs by MTT assay; type: cell-based; details: j774.1, 2 h
IC50 [1],Compound,inhibition [1],Activity [2]
–,COC(=O)C[C@H]1C(C)(C)[C@H](O)[C@@H]2CC3=C4CC(=O)O[C@@H](c5ccoc5)[C@]4(C)CC[C@@H]3[C@@]1(C)C2=O,inactive,–
–,C/C=C(\C)C(=O)O[C@@H]1C2C=C3[C@H](CC[C@@]4(C)[C@H](c5ccoc5)OC(=O)C[C@@]34O)[C@@]3(C)[C@@H](CC(=O)OC)[C@@]1(C)CO[C@@]23O,inactive,–
13.8 µg/mL,CNC(=N)NCCC[C@H](N)C(=O)O [TILARGININE],–,–
–,C/C=C(\C)C(=O)O[C@@H]1C2[C@H]3O[C@]34[C@@H]3CC(=O)O[C@@H](c5ccoc5)[C@]3(C)CC[C@@H]4[C@@]3(C)[C@@H](CC(=O)OC)[C@@]1(C)C[C@@]23O (some centres not stated),inactive,–
20.2 µM,C/C=C(\C)C(=O)O[C@@H]1/C=C\C2=C3CC(=O)O[C@@H](c4ccoc4)[C@]3(C)CC[C@@H]2[C@@]2(C)C(=O)C[C@]1(C)[C@@H]2CC(=O)OC [CHISOMICINE A],–,Toxic
–,COC(=O)C[C@H]1C(C)(C)[C@@H]2O[C@@]34C[C@@H]2C(=O)[C@]1(C)[C@H]3CC[C@]1(C)C4CC(=O)O[C@@H]1c1ccoc1 (some centres not stated),inactive,–
